Measurements as given in patent US12194078B2, “Methods and compositions related to combined treatment with anti-inflammatories and synthetic nanocarriers comprising an immunosuppressant” (Cartesian Therapeutics, Inc., priority 2017, dated 2025).
Like-named read-outs stand apart in the source and are kept apart here.

Columns and labels:
serum uric acid (sUA) [1] = assay: Phase 3 febuxostat trial: AUC of mean sUA levels over time; format: in vivo, human; conditions: data points from graph digitizer
Excerpt: Further comparisons can be made with the primary branded oral uric acid lowering medication, febuxostat. In a phase 3, randomized, double-blind, multi-center trial, the safety and efficacy of febuxostat was studied over 52 weeks (Michael A. Becker, M. D., H. Ralph Schumacher, Jr., M. D., Robert L. Wortmann, M. D., Patricia A. MacDonald, B. S. N., N. P., Denise Eustace, B. A., William A. Palo, M. S., Janet Streit, M. S., and Nancy Joseph-Ridge, M. D. Febuxostat Compared with Allopurinol in Patients with Hyperuricemia and Gout. N Engl J Med 2005; 353:2450-2461Dec. 8, 2005). […] Data points were identified using a graph digitizer for FIG. 1 of the above reference. At a dose of 80 mg/day, 55 out of 255 subjects required treatment for at least one gout flare. This would be the equivalent to a flare frequency of at least 0.22 flares per patient month, and possibly more. At a dose of 120 mg/day, 90 out of 250 subjects required treatment for at least one gout flare, equating to at least a flare frequency of 0.36 flares per patient month, and possibly more.

[2] = system: patients with hyperuricemia and gout; conditions: first 8 weeks, cited from earlier work
[3] = Combination assessment of flare frequency and AUC of mean sUA; format: in vivo, human
Protocol: Anti-drug antibodies (ADAs) can be a complication with treatment with soluble therapeutic proteins, such as the possibility of reduced efficacy. In addition, with treatment of subjects with conditions associate with gout, gout flares can increase when efficacy is increased. […] Specifically, a combination assessment of glare frequency as well as the area under the curve of mean sUA (serum uric acid) levels over time was performed. The finding of both improved efficacy and reduced gout flares was surprising with the SEL-212 study drug and anti-inflammatory treatment.
The tabulated data outlining the comparison in flare frequency between the different medications alongside their efficacy in reducing serum uric acid (sUA) is compiled in Table 4.
In addition, a combination assessment of glare frequency as well as the area under the cruve of mean sUA levels over time show both improved efficacy and reduced gout flares. […] Here, with the SEL-212 study drug and anti-inflammatory treatment, both efficacy and gout flare reduction can be achieved.

[4] = system: patients with hyperuricemia and gout; assay: Phase 3 febuxostat trial: gout flares, first 8 weeks; format: in vivo, human; conditions: first 8 weeks with gout flare prophylaxis
Excerpt: Further comparisons can be made with the primary branded oral uric acid lowering medication, febuxostat. In a phase 3, randomized, double-blind, multi-center trial, the safety and efficacy of febuxostat was studied over 52 weeks (Michael A. Becker, M. D., H. Ralph Schumacher, Jr., M. D., Robert L. Wortmann, M. D., Patricia A. MacDonald, B. S. N., N. P., Denise Eustace, B. A., William A. Palo, M. S., Janet Streit, M. S., and Nancy Joseph-Ridge, M. D. Febuxostat Compared with Allopurinol in Patients with Hyperuricemia and Gout. N Engl J Med 2005; 353:2450-2461Dec. 8, 2005). The comparison period for this analysis included only the first 8 weeks of that study, when gout flare prophylaxis (naproxen or colchicine) was administered. Data points were identified using a graph digitizer for FIG. 1 of the above reference. At a dose of 80 mg/day, 55 out of 255 subjects required treatment for at least one gout flare. This would be the equivalent to a flare frequency of at least 0.22 flares per patient month, and possibly more. At a dose of 120 mg/day, 90 out of 250 subjects required treatment for at least one gout flare, equating to at least a flare frequency of 0.36 flares per patient month, and possibly more.

uric acid = conditions: cited from earlier work
[5] = system: patients with chronic gout refractory to conventional treatment; conditions: cited from earlier work
ADAs = conditions: all KRYSTEXXA-treated subjects; cited from earlier work
serum uric acid (sUA) [6] = assay: Phase 3 pegloticase trials: AUC of mean sUA levels over time; format: in vivo, human; set-up: AUC of mean sUA levels, responders / AUC of mean sUA levels, non-responders: unit not given beside the values; conditions: for Area Under Curve of Mean sUA Levels Over Time Up to 20 Weeks: combined weighted average for responders and non-responders, digitized, extrapolated to 20 weeks
Protocol: For comparison, the Phase 3 pegloticase trials (John S. Sundy, MD, PhD; Herbert S. B. Baraf, MD; Robert A. Yood, MD; et al. Efficacy and Tolerability of Pegloticase for the Treatment of Chronic Gout in Patients Refractory to Conventional Treatment: Two Randomized Controlled Trials. JAMA. 2011; 306(7):711-720) were examined to determine the number of flares per month and the area under the curve (AUC) of mean serum uric acid (sUA) levels over time (up to 20 weeks). Subjects were given 0.6 mg of colchicine once or twice daily (or a nonsteroidal anti-inflammatory drug) one week before first infusion, which continued throughout the study. The study also included prophylaxis against infusion related reactions (IRs) before each infusion. The subjects were administered oral fexofenadine (60 mg) the evening before and again immediately before, the infusion, as well as acetaminophen 1000 mg) and IV hydrocortisone (200 mg) immediately before the infusion. Data points were obtained from Table 2, which presents the biweekly/monthly flare per patient month. Data points were also identified using a graph digitizer for FIG. 2 of the aforementioned reference. The data was extrapolated to 20 weeks. The AUC of mean sUA levels over time (up to 20 weeks) and the flares per patient month were calculated using the combined weighted average for responders and non-responders for sUA AUC. […] Similar calculations were performed to obtain the monthly data.

[7] = monthly dosing, four weeks after first dose

Compound: Cc1nc(-c2ccc(OCC(C)C)c(C#N)c2)sc1C(=O)O [Febuxostat, febuxostat]
- Area Under Curve of Mean sUA Levels Over Time Up to 20 Weeks (serum uric acid (sUA) [1]; Febuxostat 80 mg/day): 108.3
- Area Under Curve of Mean sUA Levels Over Time Up to 20 Weeks (serum uric acid (sUA) [1]; Febuxostat 120 mg/day): 93.4
- subjects that required treatment for at least one gout flare ([2]; Febuxostat 80 mg/day): 55 out of 255
- subjects that required treatment for at least one gout flare ([2]; Febuxostat 120 mg/day): 90 out of 250
- Flares per patient month * AUC ([3]; Febuxostat 80 mg/day): 23.83
- Flares per patient month * AUC ([3]; Febuxostat 120 mg/day): 33.62
- Flares per patient month ([4]; Febuxostat 80 mg/day): 0.22 flares per patient month
- Flares per patient month ([4]; Febuxostat 80 mg/day, listed as febuxostat): at least 0.22 flares per patient month
- Flares per patient month ([4]; Febuxostat 120 mg/day): 0.36 flares per patient month
- Flares per patient month ([4]; Febuxostat 120 mg/day, listed as febuxostat): ≥ 0.36 flares per patient month

Compound: Pegloticase
- non-responders, share of subjects (uric acid; monthly dosing cohorts): 65%
- subjects classified as responders (uric acid below 6 mg/dl for 80% of the time at months three and six) (uric acid; monthly dosing cohorts): 35%
- mean uric acid levels at four weeks, non-responders (uric acid; [7]): above 6 mg/dl
- mean uric acid levels at four weeks, responders (uric acid; [7]): above 4 mg/dl
- Flares per patient month ([5]; Pegloticase biweekly): 0.52 flares per patient month
- Flares per patient month ([5]; Pegloticase monthly): 0.70 flares per patient month
- treated subjects that developed ADAs (ADAs): 89%
- AUC of mean sUA levels, non-responders (serum uric acid (sUA) [6]; Pegloticase biweekly group, non-responders, cut to 20 weeks): 102.0
- AUC of mean sUA levels, responders (serum uric acid (sUA) [6]; Pegloticase biweekly group, responders): 12.3
- Area Under Curve of Mean sUA Levels Over Time Up to 20 Weeks (serum uric acid (sUA) [6]; Pegloticase biweekly): 64.0
- Area Under Curve of Mean sUA Levels Over Time Up to 20 Weeks (serum uric acid (sUA) [6]; Pegloticase monthly): 94.4
- Flares per patient month * AUC ([3]; Pegloticase biweekly): 33.28
- Flares per patient month * AUC ([3]; Pegloticase monthly): 66.05
